For 35 molecules, inhibition results are on record in ChEMBL document CHEMBL4334494, “Recent advances in the targeting of human DNA ligase I as a potential new strategy for cancer treatment” (Eur J Med Chem, 2019).

Each structure is given as a SMILES string.

The target of one assay is T1, DNA ligase 1 (Homo sapiens, UniProt P18858). Put plainly: Inhibition of human DNA ligase 1 at 25 uM using nicked DNA as substrate after 30 mins relative to control.
T1 sequence (P18858 whole entry): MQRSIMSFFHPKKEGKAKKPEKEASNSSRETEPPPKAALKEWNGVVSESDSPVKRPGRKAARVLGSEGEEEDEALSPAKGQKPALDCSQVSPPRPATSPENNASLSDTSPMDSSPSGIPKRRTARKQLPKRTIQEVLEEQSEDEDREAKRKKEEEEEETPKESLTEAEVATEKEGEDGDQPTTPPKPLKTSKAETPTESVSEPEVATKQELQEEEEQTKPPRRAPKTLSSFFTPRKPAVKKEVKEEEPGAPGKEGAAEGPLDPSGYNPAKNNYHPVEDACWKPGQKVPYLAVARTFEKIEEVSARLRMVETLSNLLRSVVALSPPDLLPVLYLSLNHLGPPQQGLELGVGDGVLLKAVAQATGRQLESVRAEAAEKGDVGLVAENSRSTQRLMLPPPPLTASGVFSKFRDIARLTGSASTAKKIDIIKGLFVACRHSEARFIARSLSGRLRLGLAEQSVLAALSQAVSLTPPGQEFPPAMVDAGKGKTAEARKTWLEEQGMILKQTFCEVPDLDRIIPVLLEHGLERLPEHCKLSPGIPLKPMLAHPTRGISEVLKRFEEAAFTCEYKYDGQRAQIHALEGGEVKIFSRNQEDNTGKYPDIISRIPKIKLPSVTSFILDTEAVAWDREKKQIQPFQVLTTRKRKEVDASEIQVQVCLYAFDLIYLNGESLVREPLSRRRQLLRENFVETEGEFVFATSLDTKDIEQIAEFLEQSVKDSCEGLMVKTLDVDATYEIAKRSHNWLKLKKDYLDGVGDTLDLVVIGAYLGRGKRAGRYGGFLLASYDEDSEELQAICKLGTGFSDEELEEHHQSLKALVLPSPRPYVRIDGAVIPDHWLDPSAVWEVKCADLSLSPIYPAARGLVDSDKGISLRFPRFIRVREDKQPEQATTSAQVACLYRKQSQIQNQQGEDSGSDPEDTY
What is called inhibition is the relative decrease from the control value, in per cent. A higher inhibition goes with strong suppression. On to `COc1ccc(/C=C/c2cc(=O)oc3c2ccc2ccccc23)cc1OC`, for which the inhibition is less than 50%.

`COc1ccc(/C=C/c2cc(=O)oc3c2ccc2c(OC)cccc23)cc1OC` yielded an inhibition of more than 50%.

`COc1cccc(OC)c1/C=C/c1cc(=O)oc2c1ccc1c(OC)cccc12` returned an inhibition of less than 50%.

`O=c1cc(/C=C/c2ccc([N+](=O)[O-])cc2)c2ccc3ccccc3c2o1` yielded an inhibition of more than 90%.

As for `COc1cc(/C=C/c2cc(=O)oc3c2ccc2c(OC)cccc23)cc(OC)c1OC`, the inhibition is less than 50%.

Regarding `COc1ccccc1/C=C/c1cc(=O)oc2c1ccc1c(C)cccc12`, the inhibition was less than 50%.

`COc1ccc(/C=C/c2cc(=O)oc3c2ccc2ccccc23)c(OC)c1` came in with an inhibition of less than 50%.

`COc1cc(/C=C/c2cc(=O)oc3c2ccc2ccccc23)cc(OC)c1OC` had an inhibition of less than 50%.

For `Cc1cccc2c1ccc1c(/C=C/c3ccccc3)cc(=O)oc12`, the inhibition was less than 50%.

In the case of `COc1ccc(OC)c(/C=C/c2cc(=O)oc3c2ccc2c(C)cccc23)c1`, the inhibition is less than 50%.

`COc1ccc(/C=C/c2cc(=O)oc3c2ccc2c(C)cccc23)cc1OC` yielded an inhibition of less than 50%.

Take `COc1ccc(/C=C/c2cc(=O)oc3c2ccc2c(OC)cccc23)c(OC)c1`: the inhibition is less than 50%.

`COc1cccc2c1ccc1c(/C=C/c3ccccc3)cc(=O)oc12` registered an inhibition of more than 50%.

`COc1cccc(/C=C/c2cc(=O)oc3c2ccc2ccccc23)c1` returned an inhibition of less than 50%.

In turn, `Cc1cccc2c1ccc1c(/C=C/c3ccc([N+](=O)[O-])cc3)cc(=O)oc12` displayed an inhibition of more than 90%.

The molecule `CN(C)c1ccc(/C=C/c2cc(=O)oc3c2ccc2ccccc23)cc1` gave an inhibition of less than 50%.

`COc1cccc2c1ccc1c(/C=C/c3ccc(C#N)cc3)cc(=O)oc12`: the inhibition was more than 90%.

`COc1cc(/C=C/c2cc(=O)oc3c2ccc2c(C)cccc23)c(OC)c(OC)c1OC`: the inhibition was less than 50%.

Turning to `N#Cc1ccc(/C=C/c2cc(=O)oc3c2ccc2ccccc23)cc1`, the inhibition was less than 50%.

With `COc1ccc(OC)c(/C=C/c2cc(=O)oc3c2ccc2c(OC)cccc23)c1`, the inhibition is less than 50%.

`COc1ccc(/C=C/c2cc(=O)oc3c2ccc2c(OC)cccc23)cc1` returned an inhibition of less than 50%.

`COc1cc(/C=C/c2cc(=O)oc3c2ccc2c(C)cccc23)cc(OC)c1` had an inhibition of more than 50%.

Molecule `O=c1cc(/C=C/c2ccccc2)c2ccc3ccccc3c2o1` showed an inhibition of less than 50%.

On to `COc1ccc(/C=C/c2cc(=O)oc3c2ccc2c(C)cccc23)c(OC)c1`, for which the inhibition is more than 90%.

Molecule `COc1cccc2c1ccc1c(/C=C/c3ccc([N+](=O)[O-])cc3)cc(=O)oc12` registered an inhibition of more than 90%.

`COc1ccc(/C=C/c2cc(=O)oc3c2ccc2ccccc23)cc1` displayed an inhibition of less than 50%.

In the case of `COc1ccc(OC)c(/C=C/c2cc(=O)oc3c2ccc2ccccc23)c1`, the inhibition was less than 50%.

The target in the next assay is T1, DNA ligase 1. Put plainly: Inhibition of human DNA ligase 1 expressed in Escherichia coli BL21DE3RP cells at 50 uM using 52-mer DNA/25-mer DNA/27-mer DNA as substrate after 30 mins by Cyanin3 dye-based fluorescence assay relative to control.
`Cc1ccc(/C=C2\CN(C(=S)Nc3ccccc3)C/C(=C\c3ccc(C)cc3)C2=O)cc1` came in with an inhibition of more than 75%.

Regarding `CC(C)c1ccc(/C=C2\CN(c3nc(-c4ccccc4)cs3)C/C(=C\c3ccc(C(C)C)cc3)C2=O)cc1`, the inhibition was more than 75%.

On to `O=C1/C(=C/c2ccc(F)cc2)CN(c2nc(-c3ccccc3)cs2)C/C1=C\c1ccc(F)cc1`, for which the inhibition is more than 75%.

Consider `O=C1/C(=C/c2ccccc2F)CN(c2nc(-c3ccccc3)cs2)C/C1=C\c1ccccc1F`, for which the inhibition is more than 75%.

As to `CC(C)c1ccc(/C=C2\CN(C(=S)NCc3ccccc3)C/C(=C\c3ccc(C(C)C)cc3)C2=O)cc1`, the inhibition was more than 75%.

`COc1ccc(/C=C2\CN(C(=S)NCc3ccccc3)C/C(=C\c3ccc(OC)cc3)C2=O)cc1` showed an inhibition of more than 75%.

In turn, `COc1ccc(/C=C2\CN(C(=S)NCCc3ccccc3)C/C(=C\c3ccc(OC)cc3)C2=O)cc1` displayed an inhibition of more than 75%.

Molecule `COc1ccc(/C=C2\CN(c3nc(-c4ccccc4)cs3)C/C(=C\c3ccc(OC)cc3)C2=O)cc1` registered an inhibition of more than 75%.
